Results: paper PMC11696576, “Next generation thiazolyl ketone inhibitors of cytosolic phospholipase A2 α for targeted cancer therapy” (Nature Communications, 2025)
Values joined by “and” are separate entries in the source; they are usually repeats but may differ in a detail not shown here. Equal values may be shown once. Read-outs that look alike come from different tables or passages of the source.

Experiments:
MV-4-11 cells = test: cell viability, resazurin assay, MV-4-11; assay type: cell-based, human; details: for cell viability relative to 0 µM = 100 (Figure S7b): MV-4-11, rep1-4, listed as AVX420
Description: (§1) Bjørn Tore Gjertsen (University of Bergen, Norway). […] The cell lines were not authenticated.
Figure S7. Sensitivity of cell lines derived from hematological malignancies. a. cell viability expressed as relative light units ( RLU) is plotted for all cell lines in the screen that were de-rived from hematological malignancies. b. corresponding IC50 values calculated by non-linear regression analysis. c. Cell viability assessed by resazurin assays in MV-4-11 and HL-60 cells.
Data were normalized to the vehicle-treated control (100%) and are the mean of 4 biological replicates ±stdev (MV-4-11) and 5 biological replicates ±stdev (HL-60), Non-linear regres- […]

Jurkat E6.1 cells = test: cell viability, CTG assay, Jurkat E6.1; assay type: cell-based, human; details: for viability at 0.125 µM: Jurkat E6.1, 0.125 µM; for cell viability (0 µM = 100): listed as AVX420; for cell viability (Control = 100): Jurkat cells
Description: Data are the mean ± stdev of 3 biological replicates. […] Data are the mean ± stdev of 3 biological replicates.
as §1

CCCCCCCOc1ccc(OCC(=O)c2nc(C(=O)OC)cs2)cc1 [GK420]
IC50 (MV-4-11 cells; Homo sapiens, MV4-11, resazurin assay): 5.7 µM
cell viability relative to 0 µM = 100 (Figure S7b) (MV-4-11 cells; 0.00306 µM): 107.974 and 94.1556 and 88.3103 and 111.814
cell viability relative to 0 µM = 100 (Figure S7b) (MV-4-11 cells; 0.00919 µM): 108.045 and 93.3168 and 91.3448 and 113.05
cell viability relative to 0 µM = 100 (Figure S7b) (MV-4-11 cells; 0.02757 µM): 114.954 and 104.137 and 83.3442 and 127.148
cell viability relative to 0 µM = 100 (Figure S7b) (MV-4-11 cells; 0.08272 µM): 119.708 and 98.9766 and 68.867 and 129.045
cell viability relative to 0 µM = 100 (Figure S7b) (MV-4-11 cells; 0.24815 µM): 113.432 and 105.146 and 76.1961 and 124.847
cell viability relative to 0 µM = 100 (Figure S7b) (MV-4-11 cells; 0.74444 µM): 108.976 and 63.5816 and 66.7499 and 99.3411
cell viability relative to 0 µM = 100 (Figure S7b) (MV-4-11 cells; 2.23333 µM): 103.119 and 55.0214 and 81.5625 and 89.0387
cell viability relative to 0 µM = 100 (Figure S7b) (MV-4-11 cells; 6.7 µM): 80.6879 and 58.6991 and 52.7781 and 45.3319
cell viability relative to 0 µM = 100 (Figure S7b) (MV-4-11 cells; 10 µM): 48.2149 and 41.1505 and 41.4878 and 26.408
cell viability relative to 0 µM = 100 (Figure S7b) (MV-4-11 cells; 30 µM): 40.7033 and 23.5083 and 29.7689 and 20.683
viability at 0.007 µM (Jurkat E6.1 cells; Homo sapiens, Jurkat E6.1, 24 h, Jurkat E6.1, 0.007 µM, 24H, read-out: cell viability (0 µM = 100)): 102%
viability at 0.015 µM (Jurkat E6.1 cells; Homo sapiens, Jurkat E6.1, 24 h, Jurkat E6.1, 0.015 µM, 24H, read-out: cell viability (0 µM = 100)): 96%
viability at 0.031 µM (Jurkat E6.1 cells; Homo sapiens, Jurkat E6.1, 24 h, Jurkat E6.1, 0.031 µM, 24H, read-out: cell viability (0 µM = 100)): 99%
viability at 0.062 µM (Jurkat E6.1 cells; Homo sapiens, Jurkat E6.1, 24 h, Jurkat E6.1, 0.062 µM, 24H, read-out: cell viability (0 µM = 100)): 103%
viability at 0.125 µM (Jurkat E6.1 cells; Homo sapiens, Jurkat E6.1, 24 h, 24H, read-out: cell viability (0 µM = 100)): 101%
viability at 0.25 µM (Jurkat E6.1 cells; Homo sapiens, Jurkat E6.1, 24 h, Jurkat E6.1, 0.25 µM, 24H, read-out: cell viability (0 µM = 100)): 90%
viability at 0.5 µM (Jurkat E6.1 cells; Homo sapiens, Jurkat E6.1, 24 h, Jurkat E6.1, 0.5 µM, 24H, read-out: cell viability (0 µM = 100)): 51%
viability at 1 µM (Jurkat E6.1 cells; Homo sapiens, Jurkat E6.1, 24 h, Jurkat E6.1, 1 µM, 24H, read-out: cell viability (0 µM = 100)): 28%
viability at 2 µM (Jurkat E6.1 cells; Homo sapiens, Jurkat E6.1, 24 h, Jurkat E6.1, 2 µM, 24H, read-out: cell viability (0 µM = 100)): 16%
viability at 0.007 µM (Jurkat E6.1 cells; Homo sapiens, Jurkat E6.1, 48 h, Jurkat E6.1, 0.007 µM, 48H, read-out: cell viability (0 µM = 100)): 101%
viability at 0.015 µM (Jurkat E6.1 cells; Homo sapiens, Jurkat E6.1, 48 h, Jurkat E6.1, 0.015 µM, 48H, read-out: cell viability (0 µM = 100)): 99%
viability at 0.031 µM (Jurkat E6.1 cells; Homo sapiens, Jurkat E6.1, 48 h, Jurkat E6.1, 0.031 µM, 48H, read-out: cell viability (0 µM = 100)): 100%
viability at 0.062 µM (Jurkat E6.1 cells; Homo sapiens, Jurkat E6.1, 48 h, Jurkat E6.1, 0.062 µM, 48H, read-out: cell viability (0 µM = 100)): 104%
viability at 0.125 µM (Jurkat E6.1 cells; Homo sapiens, Jurkat E6.1, 48 h, 48H, read-out: cell viability (0 µM = 100)): 104%
viability at 0.25 µM (Jurkat E6.1 cells; Homo sapiens, Jurkat E6.1, 48 h, Jurkat E6.1, 0.25 µM, 48H, read-out: cell viability (0 µM = 100)): 79%
viability at 0.5 µM (Jurkat E6.1 cells; Homo sapiens, Jurkat E6.1, 48 h, Jurkat E6.1, 0.5 µM, 48H, read-out: cell viability (0 µM = 100)): 39%
viability at 1 µM (Jurkat E6.1 cells; Homo sapiens, Jurkat E6.1, 48 h, Jurkat E6.1, 1 µM, 48H, read-out: cell viability (0 µM = 100)): 16%
viability at 2 µM (Jurkat E6.1 cells; Homo sapiens, Jurkat E6.1, 48 h, Jurkat E6.1, 2 µM, 48H, read-out: cell viability (0 µM = 100)): 9%
viability at 4 µM (Jurkat E6.1 cells; Homo sapiens, Jurkat E6.1, 48 h, Jurkat E6.1, 4 µM, 48H, read-out: cell viability (0 µM = 100)): 5%
viability at 0.007 µM (Jurkat E6.1 cells; Homo sapiens, Jurkat E6.1, 72 h, Jurkat E6.1, 0.007 µM, 72H, read-out: cell viability (0 µM = 100)): 100%
viability at 0.015 µM (Jurkat E6.1 cells; Homo sapiens, Jurkat E6.1, 72 h, Jurkat E6.1, 0.015 µM, 72H, read-out: cell viability (0 µM = 100)): 97%
viability at 0.031 µM (Jurkat E6.1 cells; Homo sapiens, Jurkat E6.1, 72 h, Jurkat E6.1, 0.031 µM, 72H, read-out: cell viability (0 µM = 100)): 90%
viability at 0.062 µM (Jurkat E6.1 cells; Homo sapiens, Jurkat E6.1, 72 h, Jurkat E6.1, 0.062 µM, 72H, read-out: cell viability (0 µM = 100)): 87%
viability at 0.125 µM (Jurkat E6.1 cells; Homo sapiens, Jurkat E6.1, 72 h, 72H, read-out: cell viability (0 µM = 100)): 87%
viability at 0.25 µM (Jurkat E6.1 cells; Homo sapiens, Jurkat E6.1, 72 h, Jurkat E6.1, 0.25 µM, 72H, read-out: cell viability (0 µM = 100)): 76%
viability at 0.5 µM (Jurkat E6.1 cells; Homo sapiens, Jurkat E6.1, 72 h, Jurkat E6.1, 0.5 µM, 72H, read-out: cell viability (0 µM = 100)): 31%
viability at 1 µM (Jurkat E6.1 cells; Homo sapiens, Jurkat E6.1, 72 h, Jurkat E6.1, 1 µM, 72H, read-out: cell viability (0 µM = 100)): 10%
viability at 0.5 µM (Jurkat E6.1 cells; Homo sapiens, Jurkat E6.1, Jurkat cells, 0.5 µM, VEH, read-out: cell viability (Control = 100)): 50%
viability at 1 µM (Jurkat E6.1 cells; Homo sapiens, Jurkat E6.1, Jurkat cells, 1 µM, VEH, read-out: cell viability (Control = 100)): 34%
cell viability (0 µM = 100) (Jurkat E6.1 cells; Jurkat E6.1, 0.007 µM, 24H): 98 and 97
cell viability (0 µM = 100) (Jurkat E6.1 cells; Jurkat E6.1, 0.007 µM, 48H): 98 and 97
cell viability (0 µM = 100) (Jurkat E6.1 cells; Jurkat E6.1, 0.007 µM, 72H): 98
cell viability (0 µM = 100) (Jurkat E6.1 cells; Jurkat E6.1, 0.015 µM, 48H): 98 and 97
cell viability (0 µM = 100) (Jurkat E6.1 cells; Jurkat E6.1, 0.031 µM, 24H): 95
cell viability (0 µM = 100) (Jurkat E6.1 cells; Jurkat E6.1, 0.031 µM, 48H): 98
cell viability (0 µM = 100) (Jurkat E6.1 cells; Jurkat E6.1, 0.031 µM, 72H): 95
cell viability (0 µM = 100) (Jurkat E6.1 cells; Jurkat E6.1, 0.062 µM, 24H): 94
cell viability (0 µM = 100) (Jurkat E6.1 cells; Jurkat E6.1, 0.062 µM, 48H): 93
cell viability (0 µM = 100) (Jurkat E6.1 cells; Jurkat E6.1, 0.062 µM, 72H): 98
cell viability (0 µM = 100) (Jurkat E6.1 cells; Jurkat E6.1, 0.25 µM, 72H): 61
cell viability (0 µM = 100) (Jurkat E6.1 cells; Jurkat E6.1, 0.5 µM, 24H): 41 and 43
cell viability (0 µM = 100) (Jurkat E6.1 cells; Jurkat E6.1, 0.5 µM, 72H): 30 and 21
cell viability (0 µM = 100) (Jurkat E6.1 cells; Jurkat E6.1, 1 µM, 24H): 19 and 21
cell viability (0 µM = 100) (Jurkat E6.1 cells; Jurkat E6.1, 1 µM, 48H): 14 and 13
cell viability (0 µM = 100) (Jurkat E6.1 cells; Jurkat E6.1, 1 µM, 72H): 8
cell viability (0 µM = 100) (Jurkat E6.1 cells; Jurkat E6.1, 2 µM, 48H): 7
cell viability (0 µM = 100) (Jurkat E6.1 cells; Jurkat E6.1, 4 µM, 48H): 3
effect on viability (Jurkat E6.1 cells; Jurkat E6.1, CTG): strong dose-dependent effect
cell viability (Control = 100) (Jurkat E6.1 cells; 0.5 µM, VEH, listed as AVX420, 0.5 µM): 46 and 55
cell viability (Control = 100) (Jurkat E6.1 cells; 1 µM, VEH, listed as AVX420, 1 µM): 21
